Experiments:
[1] = Prodrug stability in simulated gastric fluid; details: 37° C., pH 1.1, HPLC
Experimental: (§1) The remaining concentrations of the prodrugs were then assayed by H PLC.

[2] = Comparative pharmacokinetic screening study in the monkey (relative Cmax of guanfacine); details: oral gavage, monkey screening study
Experimental: Blood samples were taken on 4 sampling occasions at various times up to 6 hours after administration and submitted to analysis for the parent drug and prodrug using a qualified LC-MS-MS assay.

[3] = Prodrug stability in simulated intestinal fluid; details: 37° C., pH 6.8, HPLC
Experimental: as §1

[4] = Prodrug stability in freshly withdrawn porcine intestinal fluid; format: in vitro ADME; details: for Prodrug remaining at 3 h: porcine intestinal fluid pH 6.8, 37° C., in % (unit assumed)
From the text: Many of the peptidases in the intestinal lumen may not be present in the USP simulated intestinal fluid preparations previously described. […] The prodrugs evaluated were selected on the basis of adequate pharmacokinetics (see Example 8).

For `O=C(O)CC[C@@H]1N=C(NC(=O)Cc2c(Cl)cccc2Cl)NC1=O` [Compound 37, Guanfacine-(S)-Glutamic Cyclic Adduct], the “% prodrug remaining following incubation for 1 h in simulated gastric fluid pH 1.1” value [1] was 58%, the “prodrug levels in plasma (in words)” value [2] was “high prodrug levels” and the “% prodrug remaining following incubation for 2 h in simulated intestinal fluid pH 6.8” value [3] was 110%.

With `N=C(NC(=O)Cc1c(Cl)cccc1Cl)NC(=O)OCCNC(=O)CC[C@H](N)C(=O)O` [Compound 58, Guanfacine (Ethanolamine-(S)-γ-Glutamate) Carbamate] the “% prodrug remaining following incubation for 1 h in simulated gastric fluid pH 1.1” value [1] was 96%, the “Prodrug remaining at 3 h” value [4] was 81.26 ± 4.57 and the “% prodrug remaining following incubation for 2 h in simulated intestinal fluid pH 6.8” value [3] was 99%.

With `CC(C)[C@H](N)C(=O)NCCOC(=O)NC(=N)NC(=O)Cc1c(Cl)cccc1Cl` [Compound 26, Guanfacine (Ethanolamine-(S)-Valine) Carbamate] the “% prodrug remaining following incubation for 1 h in simulated gastric fluid pH 1.1” value [1] was 97%, the “stability in porcine intestinal fluid (in words)” value [4] was “very unstable” and the “Prodrug remaining at 3 h” value [4] was 13.8 ± 0.6. The “% prodrug remaining following incubation for 2 h in simulated intestinal fluid pH 6.8” value [3] was 91%.

With `N=C(NC(=O)Cc1c(Cl)cccc1Cl)NC(=O)OCCNC(=O)[C@@H]1CCC(=O)N1` [Compound 28, Guanfacine (Ethanolamine-(S)-Pyroglutamic acid) Carbamate] the “% prodrug remaining following incubation for 1 h in simulated gastric fluid pH 1.1” value [1] was 103% and the “% prodrug remaining following incubation for 2 h in simulated intestinal fluid pH 6.8” value [3] was 106%.

With `N=C(NC(=O)CC[C@H](NC(=O)[C@H](N)CO)C(=O)O)NC(=O)Cc1c(Cl)cccc1Cl` [Compound 47, Guanfacine ((S)-γ-Glutamate-(R)-Serine) Amide] the “% prodrug remaining following incubation for 1 h in simulated gastric fluid pH 1.1” value [1] was 72% and the “% prodrug remaining following incubation for 2 h in simulated intestinal fluid pH 6.8” value [3] was 89%.

In the case of `N=C(NC(=O)Cc1c(Cl)cccc1Cl)NC(=O)Nc1ccc(C(=O)O)cc1` [Compound 53, Guanfacine PABA Urea], the “% prodrug remaining following incubation for 1 h in simulated gastric fluid pH 1.1” value [1] is reported as 101% and the “% prodrug remaining following incubation for 2 h in simulated intestinal fluid pH 6.8” value [3] is reported as 100%.

With `CSCC[C@@H](N)C(=O)N[C@@H](CCC(=O)NC(=N)NC(=O)Cc1c(Cl)cccc1Cl)C(=O)O` [Compound 44, Guanfacine ((S)-γ-Glutamate-(R)-Methionine) Amide] the “% prodrug remaining following incubation for 1 h in simulated gastric fluid pH 1.1” value [1] was 75% and the “% prodrug remaining following incubation for 2 h in simulated intestinal fluid pH 6.8” value [3] was 85%.

With `CC(C)[C@@H](N)C(=O)N[C@@H](C(=O)NC(=N)NC(=O)Cc1c(Cl)cccc1Cl)C(C)C` [Compound 54, Guanfacine ((R)-Valine-(R)-Valine) Amide] the “% prodrug remaining following incubation for 1 h in simulated gastric fluid pH 1.1” value [1] was 73% and the “% prodrug remaining following incubation for 2 h in simulated intestinal fluid pH 6.8” value [3] was 66%.

For `CC(C)[C@@H](N)C(=O)N[C@H](CCC(=O)NC(=N)NC(=O)Cc1c(Cl)cccc1Cl)C(=O)O` [Compound 31, Guanfacine ((R)-γ-Glutamate (R)-Valine) Amide], the “% prodrug remaining following incubation for 1 h in simulated gastric fluid pH 1.1” value [1] was 70% and the “% prodrug remaining following incubation for 2 h in simulated intestinal fluid pH 6.8” value [3] was 85%.

In the case of `CC[C@H](C)[C@H](N)C(=O)NCCOC(=O)NC(=N)NC(=O)Cc1c(Cl)cccc1Cl` [Compound 59, Guanfacine (Ethanolamine-(S)-Isoleucine) Carbamate], the “% prodrug remaining following incubation for 1 h in simulated gastric fluid pH 1.1” value [1] is reported as 92% and the “% prodrug remaining following incubation for 2 h in simulated intestinal fluid pH 6.8” value [3] is reported as 100%.

For `CC(C)C[C@@H](N)C(=O)N[C@@H](CCC(=O)NC(=N)NC(=O)Cc1c(Cl)cccc1Cl)C(=O)O` [Compound 42, Guanfacine ((S)-γ-Glutamate-(R)-Leucine) Amide], the “% prodrug remaining following incubation for 1 h in simulated gastric fluid pH 1.1” value [1] was 70% and the “% prodrug remaining following incubation for 2 h in simulated intestinal fluid pH 6.8” value [3] was 83%.

With `CN(CC(=O)O)C(=O)NC(=N)NC(=O)Cc1c(Cl)cccc1Cl` [Compound 9, Guanfacine Sarcosine Urea] the “% prodrug remaining following incubation for 1 h in simulated gastric fluid pH 1.1” value [1] was 101%, the “prodrug levels in plasma (in words)” value [2] was “high prodrug levels” and the “% prodrug remaining following incubation for 2 h in simulated intestinal fluid pH 6.8” value [3] was 105%.

For `N=C(NC(=O)Cc1c(Cl)cccc1Cl)NC(=O)OC[C@H](NC(=O)CCN)C(=O)O` [Compound 64, Guanfacine ((S)-Serine-β-Alanine) Carbamate], the “% prodrug remaining following incubation for 1 h in simulated gastric fluid pH 1.1” value [1] was 88% and the “% prodrug remaining following incubation for 2 h in simulated intestinal fluid pH 6.8” value [3] was 93%.

With `CC(C)[C@H](NC(=O)COC(=O)NC(=N)NC(=O)Cc1c(Cl)cccc1Cl)C(=O)O` [Compound 29, Guanfacine (Glycolyl-(S)-Valine) Carbamate] the “% prodrug remaining following incubation for 1 h in simulated gastric fluid pH 1.1” value [1] was 80% and the “% prodrug remaining following incubation for 2 h in simulated intestinal fluid pH 6.8” value [3] was 99%.

For `CC(C)[C@@H]1N=C(NC(=O)Cc2c(Cl)cccc2Cl)NC1=O` [Compound 35, Guanfacine-(S)-Valine Cyclic Adduct], the “% prodrug remaining following incubation for 1 h in simulated gastric fluid pH 1.1” value [1] was 83% and the “% prodrug remaining following incubation for 2 h in simulated intestinal fluid pH 6.8” value [3] was 108%.

In the case of `CC(C)[C@H](N)C(=O)NCCCC(=O)NC(=N)NC(=O)Cc1c(Cl)cccc1Cl` [Compound 56, Guanfacine (GABA-(S)-Valine) Amide], the “% prodrug remaining following incubation for 1 h in simulated gastric fluid pH 1.1” value [1] is reported as 70% and the “% prodrug remaining following incubation for 2 h in simulated intestinal fluid pH 6.8” value [3] is reported as 111%.

With `CC(C)(COC(=O)NC(=N)NC(=O)Cc1c(Cl)cccc1Cl)[C@@H](O)C(=O)NCCC(=O)O` [Compound 68, Guanfacine Pantothenic acid Carbamate] the “% prodrug remaining following incubation for 1 h in simulated gastric fluid pH 1.1” value [1] was 86% and the “% prodrug remaining following incubation for 2 h in simulated intestinal fluid pH 6.8” value [3] was 75%.

With `CC(C)[C@@H](N)C(=O)N[C@@H](COC(=O)NC(=N)NC(=O)Cc1c(Cl)cccc1Cl)C(=O)O` [Compound 18, Guanfacine ((S)-Serine-(R)-Valine) Carbamate] the “% prodrug remaining following incubation for 1 h in simulated gastric fluid pH 1.1” value [1] was 74% and the “% prodrug remaining following incubation for 2 h in simulated intestinal fluid pH 6.8” value [3] was 108%.

For `N=C(NC(=O)Cc1c(Cl)cccc1Cl)NC(=O)NC(C(=O)O)c1ccccc1` (stereo not drawn) [Compound 8, Guanfacine Phenylglycine Urea], the “% prodrug remaining following incubation for 1 h in simulated gastric fluid pH 1.1” value [1] was 96% and the “% prodrug remaining following incubation for 2 h in simulated intestinal fluid pH 6.8” value [3] was 100%.

For `CC(C)[C@@H](N)C(=O)N[C@H](C(=O)O)[C@@H](C)OC(=O)NC(=N)NC(=O)Cc1c(Cl)cccc1Cl` [Compound 21, Guanfacine ((S)-Threonine-(R)-Valine) Carbamate], the “% prodrug remaining following incubation for 1 h in simulated gastric fluid pH 1.1” value [1] was 83% and the “% prodrug remaining following incubation for 2 h in simulated intestinal fluid pH 6.8” value [3] was 103%.

In the case of `CC(C)[C@H](N)C(=O)N[C@H](CCC(=O)NC(=N)NC(=O)Cc1c(Cl)cccc1Cl)C(=O)O` [Compound 32, Guanfacine ((R)-γ-Glutamate-(S)-Valine) Amide], the “% prodrug remaining following incubation for 1 h in simulated gastric fluid pH 1.1” value [1] is reported as 93% and the “% prodrug remaining following incubation for 2 h in simulated intestinal fluid pH 6.8” value [3] is reported as 84%.

With `N=C(NC(=O)CC[C@H](NC(=O)[C@H](N)CCC(N)=O)C(=O)O)NC(=O)Cc1c(Cl)cccc1Cl` [Compound 46, Guanfacine ((S)-γ-Glutamate-(R)-Glutamine) Amide] the “% prodrug remaining following incubation for 1 h in simulated gastric fluid pH 1.1” value [1] was 61% and the “% prodrug remaining following incubation for 2 h in simulated intestinal fluid pH 6.8” value [3] was 81%.

With `N=C(NC(=O)CC[C@H](NC(=O)[C@H](N)CCCCN)C(=O)O)NC(=O)Cc1c(Cl)cccc1Cl` [Compound 43, Guanfacine ((S)-γ-Glutamate-(R)-Lysine) Amide] the “% prodrug remaining following incubation for 1 h in simulated gastric fluid pH 1.1” value [1] was 62% and the “% prodrug remaining following incubation for 2 h in simulated intestinal fluid pH 6.8” value [3] was 85%.

In the case of `N=C(NC(=O)CC[C@H](NC(=O)[C@H](N)Cc1ccc(O)cc1)C(=O)O)NC(=O)Cc1c(Cl)cccc1Cl` [Compound 45, Guanfacine ((S)-γ-Glutamate-(R)-Tyrosine) Amide], the “% prodrug remaining following incubation for 1 h in simulated gastric fluid pH 1.1” value [1] is reported as 74% and the “% prodrug remaining following incubation for 2 h in simulated intestinal fluid pH 6.8” value [3] is reported as 91%.

With `CN1CC(=O)N=C1NC(=O)Cc1c(Cl)cccc1Cl` [Compound 12, Guanfacine-Sarcosine Cyclic Adduct] the “% prodrug remaining following incubation for 1 h in simulated gastric fluid pH 1.1” value [1] was 48% and the “% prodrug remaining following incubation for 2 h in simulated intestinal fluid pH 6.8” value [3] was 87%.

For `N=C(NC(=O)CC[C@H](NC(=O)[C@@H]1CCC(=O)N1)C(=O)O)NC(=O)Cc1c(Cl)cccc1Cl` [Compound 6, Guanfacine ((S)-γ-Glutamate-(S)-Pyroglutamic acid) Amide], the “% prodrug remaining following incubation for 1 h in simulated gastric fluid pH 1.1” value [1] was 81% and the “% prodrug remaining following incubation for 2 h in simulated intestinal fluid pH 6.8” value [3] was 98%.

In the case of `N=C(NC(=O)CCNC(=O)[C@@H]1CCC(=O)N1)NC(=O)Cc1c(Cl)cccc1Cl` [Compound 10, Guanfacine (β-Alanine-(S)-Pyroglutamic acid) Amide], the “% prodrug remaining following incubation for 1 h in simulated gastric fluid pH 1.1” value [1] is reported as 82% and the “% prodrug remaining following incubation for 2 h in simulated intestinal fluid pH 6.8” value [3] is reported as 112%.

For `N=C(NC(=O)Cc1c(Cl)cccc1Cl)NC(=O)Oc1ccc(C[C@H](N)C(=O)O)cc1` [Compound 13, Guanfacine (S)-Tyrosine Carbamate], the “% prodrug remaining following incubation for 1 h in simulated gastric fluid pH 1.1” value [1] was 74% and the “% prodrug remaining following incubation for 2 h in simulated intestinal fluid pH 6.8” value [3] was 81%.

In the case of `CNCC(=O)N[C@@H](CCC(=O)NC(=N)NC(=O)Cc1c(Cl)cccc1Cl)C(=O)O` [Compound 7, Guanfacine ((S)-γ-Glutamate-Sarcocine) Amide], the “% prodrug remaining following incubation for 1 h in simulated gastric fluid pH 1.1” value [1] is reported as 79%, the “Prodrug remaining at 3 h” value [4] is reported as 48.9 ± 0.8 and the “% prodrug remaining following incubation for 2 h in simulated intestinal fluid pH 6.8” value [3] is reported as 66%.

With `C[C@H]1N=C(NC(=O)Cc2c(Cl)cccc2Cl)NC1=O` [Compound 51, Guanfacine-(R)-Alanine Cyclic Adduct] the “% prodrug remaining following incubation for 1 h in simulated gastric fluid pH 1.1” value [1] was 80% and the “% prodrug remaining following incubation for 2 h in simulated intestinal fluid pH 6.8” value [3] was 103%.

In the case of `N=C(NC(=O)Cc1c(Cl)cccc1Cl)NC(=O)c1ccc(N)cc1` [Compound 52, Guanfacine PABA Amide], the “% prodrug remaining following incubation for 1 h in simulated gastric fluid pH 1.1” value [1] is reported as 84%, the “stability in porcine intestinal fluid (in words)” value [4] is reported as “high stability” and the “Prodrug remaining at 3 h” value [4] is reported as 87.77 ± 5.80. The “% prodrug remaining following incubation for 2 h in simulated intestinal fluid pH 6.8” value [3] was 97%.

In the case of `N=C(NC(=O)Cc1c(Cl)cccc1Cl)NC(=O)OC[C@H](NC(=O)[C@@H]1CCC(=O)N1)C(=O)O` [Compound 16, Guanfacine ((S)-Serine-(S)-Pyroglutamic acid) Carbamate], the “% prodrug remaining following incubation for 1 h in simulated gastric fluid pH 1.1” value [1] is reported as 78% and the “% prodrug remaining following incubation for 2 h in simulated intestinal fluid pH 6.8” value [3] is reported as 95%.
